According to US10577373B2, “TYK2 inhibitors and uses thereof” (Nimbus Lakshmi, Inc., priority 2017, dated 2020):
Like-named read-outs stand apart in the source and are kept apart here.

Experiments:
[1] = system: GM-CSF induced STAT5 phosphorylation mediated by the JAK2/JAK2 homdimeric complex; assay: GM-CSF Induced pSTAT5 in Human PBMC; settings: GM-CSF 5 ng/mL for 20 minutes, pSTAT5
Source text: Human PBMC are isolated from buffy coat and are stored frozen for assays as needed.

[2] = system: IL-12 induced STAT4 phophorylation mediated by Tyk2/JAK2 (heterodimeric complex); assay: IL-12 Induced pSTAT4 in Human PBMC; assay type: cell-based; settings: 1.7 ng/mL IL-12
Source text: The IL-12 Induced pSTAT4 assay evaluates the inhibition of IL-12 induced STAT4 phophorylation mediated by Tyk2/JAK2 (heterodimeric complex).

[3] = Homo sapiens, PBMC, 20 min, read-out: PBMC_GMCSF_pSTAT5 IC50, human PBMC

Compound | IC50 [1, 3] [nM] | IC50 [2] [nM] | IC50 ([1]; read-out: PBMC_GMCSF_pSTAT5 IC50, human PBMC) [nM]
[2H]C([2H])([2H])Oc1ncc(F)cc1Nc1cc(NC)n2ncc(C(=O)NC3CC3)c2n1 [I-284] | > 12500 | < 100 | 
CNc1cc(Nc2cc(F)cnc2OCCOC)nc2c(C(=O)N[C@H]3C[C@H]3F)cnn12 [I-285] | > 50000 | < 100 | 
[2H]C([2H])([2H])Oc1ncc(F)cc1Nc1cc(NC)n2ncc(C(=O)NC3CCC3)c2n1 [I-288] | > 2500 | < 100 | 
CNc1cc(Nc2cc(F)cnc2OCCOC)nc2c(C(=O)NC3CCC3)cnn12 [I-290] | > 2500 | < 100 | 
CNc1cc(Nc2cccn(-c3nc(C)c(C)s3)c2=O)nc2c(C(=O)N[C@H]3C[C@H]3F)cnn12 [I-292] | > 2500 | < 100 | 
CNc1cc(Nc2cccn(-c3ccn(C)n3)c2=O)nc2c(C(=O)NC3CC3)cnn12 [I-294] | > 12500 | < 100 | 
CNc1cc(Nc2cccn(-c3cnn(C)c3)c2=O)nc2c(C(=O)NC3CC3)cnn12 [I-295] | > 50000 | < 100 | 
CNc1cc(Nc2cccn(-c3cnn(C)c3)c2=O)nc2c(C(=O)N[C@H]3C[C@H]3F)cnn12 [I-296] | > 50000 | < 100 | 
CNc1cc(Nc2cccn(-c3cncc(C)c3)c2=O)nc2c(C(=O)NC3CCC3)cnn12 [I-303] | > 50000 | < 100 | 
CNc1cc(Nc2cccn(C3CCCCC3)c2=O)nc2c(C(=O)N[C@H]3C[C@H]3F)cnn12 [I-305] | > 12500 | < 100 | 
CNc1cc(Nc2cc(Cl)cn(-c3ccn(C)n3)c2=O)nc2c(C(=O)N[C@H]3C[C@H]3F)cnn12 [I-309] | > 12500 | < 100 | 
CNc1cc(Nc2cc(Cl)cn(-c3ccn(C)n3)c2=O)nc2c(C(=O)NC3CC3)cnn12 [I-310] | > 2500 | < 100 | 
CNc1cc(Nc2cc(Cl)cn(-c3cnn(C)c3)c2=O)nc2c(C(=O)NC3CC3)cnn12 [I-311] | > 12500 | < 100 | 
CNc1cc(Nc2cc(Cl)cn(-c3cnn(C)c3)c2=O)nc2c(C(=O)N[C@H]3C[C@H]3F)cnn12 [I-312] | > 12500 | < 100 | 
CNc1cc(Nc2cc(Cl)cn(-c3cc(C)n(C)n3)c2=O)nc2c(C(=O)NC3CC3)cnn12 [I-314] | > 2500 | < 100 | 
CNc1cc(Nc2cc(Cl)cn(-c3cc(C)n(C)n3)c2=O)nc2c(C(=O)N[C@H]3C[C@H]3F)cnn12 [I-315] | > 12500 | < 100 | 

Compound | IC50 [1, 3] [nM] | IC50 [2] [nM] | IC50 ([1]; read-out: PBMC_GMCSF_pSTAT5 IC50, human PBMC) [nM]
CNc1cc(Nc2cc(Cl)cn(-c3ccnc(C)n3)c2=O)nc2c(C(=O)N[C@H]3C[C@H]3F)cnn12 [I-317] | > 2500 | < 100 | 
CNc1cc(Nc2cc(Cl)cn(-c3cnc(C(=O)N(C)C)cn3)c2=O)nc2c(C(=O)NC3CC3)cnn12 [I-318] | > 2500 | < 100 | 
CNc1cc(Nc2cc(Cl)cn(-c3cnc(C(=O)N(C)C)cn3)c2=O)nc2c(C(=O)N[C@H]3C[C@H]3F)cnn12 [I-319] | > 2500 | < 100 | 
[2H]C([2H])([2H])Oc1ncccc1Nc1cc(NC)n2ncc(C(=O)N[C@H]3C[C@H](O)C3)c2n1 [I-321, N-((1r,3r)-3-hydroxycyclobutyl)-5-((2-(methoxy-d3)pyridin-3-yl)amino)-7-(methylamino)pyrazolo[1,5-a]pyrimidine-3-carboxamide] | > 2500 | < 100 | 
CNc1cc(Nc2cc(Cl)cn(-c3ncc(C)s3)c2=O)nc2c(C(=O)N[C@H]3C[C@H]3F)cnn12 [I-323] | > 2500 | < 100 | 
CNc1cc(Nc2cc(Cl)cn(-c3cnn(C4CC4)c3C)c2=O)nc2c(C(=O)N[C@H]3C[C@H]3F)cnn12 [I-326] | > 50000 | < 100 | 
CNc1cc(Nc2cccn(C3CCOCC3)c2=O)nc2c(C(=O)NC3CC3)cnn12 [I-329] | > 2500 | < 100 | 
CNc1cc(Nc2cccn(C3CCOCC3)c2=O)nc2c(C(=O)N[C@H]3C[C@H]3F)cnn12 [I-330] | > 2500 | < 100 | 
CNc1cc(Nc2cc(Cl)cn(-c3ccn(C4CC4)n3)c2=O)nc2c(C(=O)NC3CC3)cnn12 [I-331] | > 12500 | < 100 | 
CNc1cc(Nc2cc(Cl)cn(-c3ccn(C4CC4)n3)c2=O)nc2c(C(=O)N[C@H]3C[C@H]3F)cnn12 [I-332] | > 2500 | < 100 | 
CNc1cc(Nc2cc(Cl)cn(-c3ccc(C4CC4)nn3)c2=O)nc2c(C(=O)NC3CC3)cnn12 [I-333] | > 12500 | < 100 | 
CNc1cc(Nc2cc(Cl)cn(-c3ccc(C4CC4)nn3)c2=O)nc2c(C(=O)N[C@H]3C[C@H]3F)cnn12 [I-334] | > 50000 | < 100 | 
CNc1cc(Nc2cccn(-c3cc(C)nn3C)c2=O)nc2c(C(=O)NC3CCC3)cnn12 [I-342] | > 12500 | < 100 | 
CNc1cc(Nc2cccn([C@H]3CC[C@H](OC)CC3)c2=O)nc2c(C(=O)NC3CC3)cnn12 [I-343] | > 12500 | < 100 | 
CNc1cc(Nc2cccn([C@H]3CC[C@H](OC)CC3)c2=O)nc2c(C(=O)N[C@H]3C[C@H]3F)cnn12 [I-344] | > 12500 | < 100 | 
CNc1cc(Nc2cccn([C@H]3CC[C@H](OC)CC3)c2=O)nc2c(C(=O)NC3CCC3)cnn12 [I-345] | > 50000 | < 100 | 

Second part, the molecule after the results:

IC50 [1, 3] [nM] | IC50 [2] [nM] | IC50 ([1]; read-out: PBMC_GMCSF_pSTAT5 IC50, human PBMC) [nM] | Compound
> 2500 | < 100 |  | CNc1cc(Nc2cccnc2OC)nc2c(C(=O)NCC(C)(C)CO)cnn12 [I-346]
> 50000 | < 100 |  | [2H]C([2H])([2H])Oc1ncccc1Nc1cc(NC)n2ncc(C(=O)NCC(C)(C)CO)c2n1 [I-347]
> 50000 | < 100 |  | CNc1cc(Nc2cccnc2OC2CC2)nc2c(C(=O)NCC(C)(C)CO)cnn12 [I-350]
> 50000 | < 100 |  | CNc1cc(Nc2cccn([C@H]3CCCOC3)c2=O)nc2c(C(=O)NC3CC3)cnn12 [I-352]
> 2500 | < 100 |  | CNc1cc(Nc2cccn([C@H]3CCCOC3)c2=O)nc2c(C(=O)NC3CCC3)cnn12 [I-354]
> 2500 | < 100 |  | CNc1cc(Nc2cccn([C@H]3CC[C@@H](OC)CC3)c2=O)nc2c(C(=O)N[C@H]3C[C@H]3F)cnn12 [I-357]
> 12500 | 100 to 500 |  | CNc1cc(Nc2cccn([C@H]3CC[C@@](C)(OC)CC3)c2=O)nc2c(C(=O)NC3CC3)cnn12 [I-359]
> 50000 | < 100 |  | CNc1cc(Nc2cccn([C@H]3CC[C@@](C)(OC)CC3)c2=O)nc2c(C(=O)N[C@H]3C[C@H]3F)cnn12 [I-360]
> 50000 | < 100 |  | CNc1cc(Nc2cccn([C@H]3CC[C@](C)(OC)CC3)c2=O)nc2c(C(=O)N[C@H]3C[C@H]3F)cnn12 [I-362]
> 50000 | < 100 |  | CNc1cc(Nc2cccn(CC3CCCCO3)c2=O)nc2c(C(=O)N[C@H]3C[C@H]3F)cnn12 (stereo partly drawn) [I-365]
> 12500 | < 100 |  | CNc1cc(Nc2cccn(-c3nc(C)co3)c2=O)nc2c(C(=O)NC3CC3)cnn12 [I-368]
> 50000 | < 100 |  | CNc1cc(Nc2cccn(-c3nc(C)co3)c2=O)nc2c(C(=O)N[C@H]3C[C@H]3F)cnn12 [I-369]
> 50000 | < 100 |  | [2H]C([2H])([2H])Oc1ncccc1Nc1cc(NC)n2ncc(C(=O)N[C@H]3CC[C@@H]3O)c2n1 [I-373]
> 12500 | < 100 |  | CNc1cc(Nc2cc(F)cn(-c3ccn(C)n3)c2=O)nc2c(C(=O)NC3CC3)cnn12 [I-378]
> 2500 | < 100 |  | CNc1cc(Nc2cc(F)cn(-c3ccn(C)n3)c2=O)nc2c(C(=O)N[C@H]3C[C@H]3F)cnn12 [I-379]
> 12500 | < 100 |  | CNc1cc(Nc2cc(F)cn(-c3cnn(C)c3)c2=O)nc2c(C(=O)NC3CC3)cnn12 [I-380]
> 12500 | < 100 |  | CNc1cc(Nc2cc(F)cn(-c3cnn(C)c3)c2=O)nc2c(C(=O)N[C@H]3C[C@H]3F)cnn12 [I-381]
> 300 | < 100 |  | CNc1cc(Nc2cc(F)cn(-c3cc(C)n(C)n3)c2=O)nc2c(C(=O)NC3CC3)cnn12 [I-384]
> 2500 | < 100 |  | CNc1cc(Nc2cc(F)cn(-c3cc(C)n(C)n3)c2=O)nc2c(C(=O)N[C@H]3C[C@H]3F)cnn12 [I-385]
> 50000 | < 100 |  | CNc1cc(Nc2cccn(-c3nc(C)co3)c2=O)nc2c(C(=O)NC3CCC3)cnn12 [I-386]
> 50000 | < 100 |  | CNc1cc(Nc2cccnc2OC)nc2c(C(=O)NC3CCC3O)cnn12 (stereo not drawn) [I-390, N-(2-hydroxycyclobutyl)-5-((2-methoxypyridin-3-yl)amino)-7-(methylamino) pyrazolo[1,5-a]pyrimidine-3-carboxamide]
> 50000 | < 100 |  | CNc1cc(Nc2cccnc2OC2CC2)nc2c(C(=O)NC3CCC3O)cnn12 (stereo not drawn) [I-392, 5-((2-cyclopropoxypyridin-3-yl)amino)-N-(2-hydroxycyclobutyl)-7-(methylamino)pyrazolo[1,5-a]pyrimidine-3-carboxamide]
> 12500 | < 100 |  | CNc1cc(Nc2cccn(C3CCC4(CC3)OCCO4)c2=O)nc2c(C(=O)NC3CC3)cnn12 [I-393]
 | < 100 | > 12500 | CNc1cc(Nc2cccnc2OC)nc2c(C(=O)N[C@H]3CC[C@@H]3O)cnn12 [I-395]
> 50000 | < 100 |  | CNc1cc(Nc2cccnc2OC)nc2c(C(=O)N[C@@H]3CC[C@H]3O)cnn12 [I-396]
> 50000 | < 100 |  | CNc1cc(Nc2cccnc2OC2CC2)nc2c(C(=O)N[C@H]3CC[C@@H]3O)cnn12 [I-397]
> 12500 | < 100 |  | CNc1cc(Nc2cccnc2OC2CC2)nc2c(C(=O)N[C@@H]3CC[C@@H]3O)cnn12 [I-401]
> 12500 | 100 to 500 |  | CNc1cc(Nc2cccn(-c3cnn(CC4CCOCC4)c3)c2=O)nc2c(C(=O)NC3CC3)cnn12 [I-406]
